From patent US20220213433A1, “Three-Dimensional Cross-Linked Scaffolds of Cord Blood Plasma and Their Use” (SANFORD HEALTH, priority 2019, published 2022)
Entries after “also recorded” stand apart in the source; their conditions may differ. Blank lines part the entries; values can stand above or below the compound they belong to.

What was measured:
[1] = time to achieve matrix cross-linking of cord blood plasma; type: physicochemical, human
Protocol: (§1) FIG. 2(a-b). Chemical characterization of cord blood plasma 3D culture model referred as InvitroWOMB (iWOMB).
(§2) Referring to FIG. 2, cross-linking time was assessed by measuring the time necessary to achieve matrix cross-linking using three relevant cross-linkers of the blood coagulation process including thrombin (0-5 mg/ml) and CaCl2 (0-10 mg/ml). The stabilization effects of preventing fibrin degradation and stability improvement in the scaffold was assessed by surveying an antifibrinolytic agent such as tranexamic acid (0-5 mg/ml). The stability of the scaffold was studied by measuring each scaffold weight at day 0 and again measuring scaffold weight at the conclusion of a 3 week time period.

[2] = scaffold stability: scaffold weight at day 0 and after 3 weeks; type: physicochemical, human; details: tranexamic acid in the range of 5 mg/ml (tested 0-5 mg/ml); 3 week period
Protocol: as §1, §2

GDM-exposed hu-MSC = experiment: hu-MSC growth assay with metformin, live cells counted by Trypan blue; type: cell-based, human; details: 25 μM metformin; 20K cells/well; 72 hour cell counts
Description: (§3) FIG. 9(a-d). Precision capabilities. (a) Using a custom human antibody array we measured relative expression of cytokines and growth factors in cord plasma for scaffolds from subjects with Type 1 (T1D), Type 2 (T2D) and gestational diabetes (GDM). Bar graphs represent relative expression by densitometry compared to negative control (membrane background). (b) Hu-MSC from control, T1D, T2D and GDM donors (n=2-3/group) were uniformly plated (50K live cells/well) in stem cell media to collagen-coated, 24-well plates. Trypan blue was used to count live cells every 24 hours and growth was measured and compared. Bar graphs represent fold change from baseline to 72 hours; *p<0.05 by one-way ANOVA with Dunnett post-test, (c) Control hu-MSCs were treated with metformin at increasing doses (0, 25, 50 and 100 μM) and growth was followed as previously described. […] Bar graphs represent the number of cells/well remaining at 72 hours after initial plating of 20K cells/well.
(§4) To determine whether iWOMB is a useful tool for precision-based assays, we used umbilical cord plasma and hu-MSC from control and diabetic pregnancy to identify diabetes-related differences in proteins in the DME and/or programmed cell fate. […] Using our customized antibody array as detailed above (FIG. 8), we compared relative expression of cytokines and growth factors in cord plasma protein. Just as fibrinogen levels are higher in cord plasma from diabetic pregnancies, so are other factors. Specifically, umbilical cord plasma cytokines (IL-6, IL-10), insulin like growth factor −1 (IGF-1) and hepatocyte growth factor (HGF) from Type 1 diabetic pregnancy (TID) are higher than in plasma from Type 2 (T2D) and gestational diabetes (GDM) (FIG. 9a). […] Every 24 hours cells were detached using 0.25% trypsin/EDTA and live cells were counted using Trypan blue staining and a hemocytometer. Live cells were recorded at each time point for […]. […] Every 24 hours cells were detached using 0.25% trypsin/EDTA and live cells were counted using Trypan blue and a hemocytometer. Live cells were recorded at each time point for 72 hours. […]

control hu-MSC = experiment: as above; type: cell-based, human
Description: as §3, §4

Compound: [Ca+2].[Cl-].[Cl-] [CaCl2, calcium chloride]
cross-linking time ([1]; CaCl2 1.25 to 5 mg/ml (tested 0-10 mg/ml)): fastest crosslinking

scaffold stability (prevention of fibrin degradation) [2]: best improvement in scaffold stability
Compound: NC[C@H]1CC[C@H](C(=O)O)CC1 [Tranexamic acid, tranexamic acid]

Compound: CN(C)C(=N)N=C(N)N [metformin]
growth of GDM exposed hu-MSC (GDM-exposed hu-MSC): increased growth; also recorded: improves
growth of control hu-MSC (control hu-MSC; 25 μM metformin (level reported in umbilical cord blood), 20K cells/well, 72 hours): does not impair growth
hu-MSC cell growth (number of live cells over time) (control hu-MSC; normal/control hu-MSC, metformin 0, 25, 50, 100 uM, live cells counted every 24 h for 72 hours): impairs hu-MSC growth in a dose dependent manner; also recorded: dose-dependent decline in cell growth

Compound: thrombin
cross-linking time ([1]; thrombin 0.5 to 5 mg/ml (tested 0-5 mg/ml)): fastest crosslinking
